Assays:
MDA-MB-436 cells [1] = assay: Cell cycle analysis with PI (flow cytometry); assay type: cell-based, human
Method: (§1) Cells were seeded onto 6-well plates and treated with A-1 (0.1 µM and 1 µM) for 24, 48, and 72 h. Cells incubated with 0.01% DMSO (ATCC; Manassas, VA, USA) were used as a control. Then, MDA-MB-231 and MCF-10A cells were collected by trypsinization; MDA-MB-436 cells were collected by scraping. Treated cells were fixed with ice-cold 70% ethanol while vortexing and incubated for 1 h in 4 °C. Then, cells were washed with cold 1X DPBS, treated with 1 mg/mL of ribonuclease A, and incubated for 30 min at 37 °C. The cells were then stained with 10 µg/mL of propidium iodide (PI), incubated for 30 min at 37 °C, and analyzed by flow cytometry using BD FACS Aria Sorter (BD Biosciences, Franklin Lakes, NJ, USA). Data were analyzed with Modfit LT 5.0 software (Verity Software House; Topsham, ME, USA). All experiments were performed in triplicates.

MCF-10A cells = assay: Cell cycle analysis with PI (flow cytometry); assay type: cell-based, human; conditions: 0.1 and 1 µM, 24, 48, 72 h
Method: as §1

MDA-MB-231 cells [2] = assay: Cell cycle analysis with PI (flow cytometry); assay type: cell-based, human
Method: as §1

MDA-MB-436 cells [3] = assay: Annexin V-FITC/PI apoptosis assay (flow cytometry); assay type: cell-based, human; conditions: mean ± SD
Method: (§2) Cells (10^6 cells/well) were seeded onto 6-well plates. After 24 h, the cells were incubated with A-1 (0.1 and 1 µM) for 24, 48, and 72 h. The control groups were incubated with 0.01% DMSO (ATCC; Manassas, VA, USA) for every hour. Then, cells were collected and washed twice with cold 1X PBS and stained with both annexin V-FITC and PI for 5 min at room temperature. The cells were analyzed by flow cytometry using BD FACS Aria (BD Biosciences, Franklin Lakes, NJ, USA). The positive controls (annexin negative/PI negative; annexin negative/PI positive; and annexin positive/PI negative) were used to set up compensation and set quadrants. The early apoptotic cells were measured in the quadrant of annexin V positive/PI negative and late apoptotic/necrotic cells were measured in the quadrant of annexin positive/PI positive. Data were analyzed with FlowJo™ v10.8 Software (BD Life Sciences; Ashland, OR, USA). All experiments were performed in triplicates.

MDA-MB-231 cells [4] = assay: Annexin V-FITC/PI apoptosis assay (flow cytometry); assay type: cell-based, human; conditions: mean ± SD
Method: as §2

[5] = test system: caspase-3/7 activity in MDA-MB-231 cells; assay: Apo-ONE Homogenous Caspase-3/7 Assay; assay type: cell-based, human; conditions: 0.1, 1, 10 µM, 48 h
Method: (§3) The Apo-ONE® Homogenous Caspase-3/7 Assay (Promega, Madison, WI, USA) was used for measuring caspase-3/7 activity. Cells (10,000 cells/well) were seeded in 96-well plates. After 24 h, the cells were treated with A-1, A-3, and RES, and incubated for an additional 48 h at 37 °C, with a humidified atmosphere of 5% CO2 (however, MDA-MB-436 cells were incubated in 0% CO2). Control groups were cells treated with 0.01% DMSO (ATCC; Manassas, VA, USA). According to the manufacturer, after 48 h of treatment, the caspase reagent was added to the cells and the plates were incubated at room temperature in the dark for 1 h. Then, fluorescence was measured every hour for a total of 4 h using the Cytation^TM 5 (BioTek; Winooski, VT, USA) plate reader at an excitation wavelength of 485 ± 20 nm and emission of 530 ± 25 nm.

[6] = test system: caspase-3/7 activity in MDA-MB-436 cells; assay: Apo-ONE Homogenous Caspase-3/7 Assay; assay type: cell-based, human; conditions: 0.1, 1, 10 µM, 48 h
Method: as §3

[7] = test system: peripheral blood mononuclear cells (PBMCs); set-up: method as in PMID 21067217; conditions: cited from earlier work

Q: For `CC(C)/C=C/c1c(O)cc(/C=C/c2ccc(O)c(O)c2)cc1O` [A-1, arachidin-1], which “percentage of cells in G2-M phase” value (MDA-MB-436 cells [1]; 0.1 µM, 48 h) is on record?
A: The value was 25.82 ± 2.73%.

Q: And the “percentage of cells in G2-M phase” value (MDA-MB-436 cells [1]; 0.1 µM, 72 h)?
A: The value was 38.89 ± 0.08%.

Q: What about the “percentage of cells in G2-M phase” value (MDA-MB-436 cells [1]; 1 µM, 24 h) of the same molecule?
A: Its value is 23.97 ± 0.57%.

Q: And the “percentage of cells in G2-M phase” value (MDA-MB-436 cells [1]; 1 µM, 48 h)?
A: Its value is 31.07 ± 0.29%.

Q: And the “percentage of cells in G2-M phase” value (MDA-MB-436 cells [1]; 1 µM, 72 h)?
A: The value was 36.88 ± 1.42%.

Q: What about the cell cycle effect (MDA-MB-436 cells [1]; 0.1 and 1 µM) of the same molecule?
A: The cell cycle effect was “increased the percentage of cells in the G2-M phase”.

Q: What about the “change in cell cycle phase distribution” value (MCF-10A cells) of the same molecule?
A: The value was “no significant changes in the percentage of cells at different phases”.

Q: And the “percentage of cells in G2-M phase” value (MDA-MB-231 cells [2]; 0.1 µM, 72 h)?
A: Its value is 27.73 ± 4.33%.

Q: And the “percentage of cells in G2-M phase” value (MDA-MB-231 cells [2]; 1 µM, 24 h)?
A: Its value is roughly 31.73 ± 4.00%.

Q: What about the “percentage of cells in G2-M phase” value (MDA-MB-231 cells [2]; 1 µM, 48 h) of the same molecule?
A: The value was roughly 25.13 ± 0.89%.

Q: What about the “percentage of cells in G2-M phase” value (MDA-MB-231 cells [2]; 1 µM, 72 h) of the same molecule?
A: Its value is 31.28 ± 3.45%.

Q: And the cell cycle effect (MDA-MB-231 cells [2]; 0.1 and 1 µM)?
A: Its cell cycle effect is “cell arrest in the G2-M phase”.

Q: What about the “percentage of early apoptotic cells” value (MDA-MB-436 cells [3]; 0.1 µM, 24 h) of the same molecule?
A: Its value is 35.76 ± 4.10%.

Q: And the “percentage of early apoptotic cells” value (MDA-MB-436 cells [3]; 0.1 µM, 48 h)?
A: Its value is 44.90 ± 0.89%.

Q: And the “percentage of early apoptotic cells” value (MDA-MB-436 cells [3]; 0.1 µM, 72 h)?
A: The value was 45.73 ± 0.96%.

Q: What about the “percentage of early apoptotic cells” value (MDA-MB-436 cells [3]; 1 µM, 24 h) of the same molecule?
A: The value was 35.27 ± 3.78%.

Q: What about the “percentage of early apoptotic cells” value (MDA-MB-436 cells [3]; 1 µM, 48 h) of the same molecule?
A: The value was 46.11 ± 3.40%.

Q: What about the “percentage of early apoptotic cells” value (MDA-MB-436 cells [3]; 1 µM, 72 h) of the same molecule?
A: Its value is 38.77 ± 2.59%.

Q: And the “percentage of cells in early apoptosis” value (MDA-MB-231 cells [4]; 0.1 µM, 24 h)?
A: Its value is 21.29 ± 1.94%.

Q: What about the “percentage of cells in early apoptosis” value (MDA-MB-231 cells [4]; 0.1 µM, 48 h) of the same molecule?
A: Its value is 63.47 ± 0.90%.

Q: What about the “percentage of cells in early apoptosis” value (MDA-MB-231 cells [4]; 0.1 µM, 72 h) of the same molecule?
A: The value was 53.1 ± 2.50%.

Q: What about the “percentage of cells in early apoptosis” value (MDA-MB-231 cells [4]; 1 µM, 24 h) of the same molecule?
A: Its value is 24.76 ± 1.65%.

Q: What about the “percentage of cells in early apoptosis” value (MDA-MB-231 cells [4]; 1 µM, 48 h) of the same molecule?
A: Its value is 68.67 ± 0.76%.

Q: What about the “percentage of cells in early apoptosis” value (MDA-MB-231 cells [4]; 1 µM, 72 h) of the same molecule?
A: Its value is 51.77 ± 2.37%.

Q: What about the “caspase-3/7 activity vs control” value [5] of the same molecule?
A: Its value is “significant increase of dose-dependent caspase-3/7 activities”.

Q: What about the “caspase-3/7 activity vs control” value [6] of the same molecule?
A: Its value is “significant increase of dose-dependent caspase-3/7 activities”.

Q: What about the “cytotoxic effects on PBMCs” value [7] of the same molecule?
A: The value was “no cytotoxic effects”.

— PMC8835363, “Arachidin-1, a Prenylated Stilbenoid from Peanut, Induces Apoptosis in Triple-Negative Breast Cancer Cells” (International Journal of Molecular Sciences, 2022)
